Where “and” joins values, the source holds several entries; their conditions need not be identical. Identical values can stand only once. Like-named read-outs stand apart in the source and are kept apart here. Values belong to the compound of their own block, whether it stands above or below them.
Experiments:
[1] = test system: tumor cell lines shown in Table 42; test: Example 11: combined use with antimetabolite, cell growth inhibition test (IC50 ratio, CI); type: cell-based
[2] = test system: tumor cell lines shown in Table 26; test: Example 3: combined use with serine-threonine kinase inhibitor, cell growth inhibition test (IC50 ratio, CI); details: for Comprehensive Evaluation: combined use with Reference Example Compound 55
[3] = test system: human acute T lymphoblastic leukemia CCRF-CEM cell lines; test: Cell growth inhibition 1 (CellTiter-Glo); type: cell-based; details: culture with test compound 72 hours
[4] = TMD-8, IC50 of Reference Example Compound 55 : IC50 of other compound = 1:value
[5] = A431, IC50 of Reference Example Compound 55 : IC50 of other compound = 1:value
[6] = A431, combined use with Reference Example Compound 55
[7] = A549, IC50 of Reference Example Compound 55 : IC50 of other compound = 1:value

- IC50 [3]: 2 nM
Compound: CCOc1cc(F)cc(F)c1C#Cc1cn([C@@H]2O[C@H](CNS(N)(=O)=O)[C@@H](O)[C@H]2O)c2ncnc(N)c12 [Reference Example 35, 4-Amino-7-[(2R,3R,4S,5R)-3,4-dihydroxy-5-[(sulfamoylamino)methyl]tetrahydrofuran-2-yl]-5-[2-(2-ethoxy-4,6-difluoro-phenyl)ethynyl]pyrrolo[2,3-d]pyrimidine]

- IC50 [3]: 15 nM
Compound: CCS(=O)(=O)c1cc(N2CCCC2)cc(F)c1C#Cc1cn([C@@H]2O[C@H](CNS(N)(=O)=O)[C@@H](O)[C@H]2O)c2ncnc(N)c12 [Reference Example 70, 4-Amino-7-[(2R,3R,4S,5R)-3,4-dihydroxy-5-[(sulfamoylamino)methyl]tetrahydrofuran-2-yl]-5-[2-(2-ethylsulfonyl-6-fluoro-4-pyrrolidin-1-yl-phenyl)ethynyl]pyrrolo[2,3-d]pyrimidine]

- IC50 [3]: 88 nM
Compound: CCS(=O)(=O)c1cc(N2CC[C@@H](O)C2)cc(F)c1C#Cc1cn([C@@H]2O[C@H](CNS(N)(=O)=O)[C@@H](O)[C@H]2O)c2ncnc(N)c12 [Reference Example 72, 4-Amino-7-[(2R,3R,4S,5R)-3,4-dihydroxy-5-[(sulfamoylamino)methyl]tetrahydrofuran-2-yl]-5-[2-[2-ethylsulfonyl-6-fluoro-4-[(3R)-3-hydroxypyrrolidin-1-yl]phenyl]ethynyl]pyrrolo[2,3-d]pyrimidine]

- IC50 [3]: 2.7 nM
Compound: Nc1ncnc2c1c(C#Cc1c(F)cc(N3CCC3)cc1F)cn2[C@@H]1O[C@H](CNS(N)(=O)=O)[C@@H](O)[C@H]1O [Reference Example 43, 4-amino-5-[2-[4-(azetidin-1-yl)-2,6-difluoro-phenyl]ethynyl]-7-[(2R,3R,4S,5R)-3,4-dihydroxy-5-[(sulfamoylamino)methyl]tetrahydrofuran-2-yl]pyrrolo[2,3-d]pyrimidine]

- IC50 [3]: 6.1 nM
Compound: CCOc1cc(N2CCOCC2)cc(F)c1C#Cc1cn([C@@H]2O[C@H](CNS(N)(=O)=O)[C@@H](O)[C@H]2O)c2ncnc(N)c12 [Reference Example 34, 4-[4-[2-[4-Amino-7-[(2R,3R,4S,5R)-3,4-dihydroxy-5-[(sulfamoylamino)methyl]tetrahydrofuran-2-yl]pyrrolo[2,3-d]pyrimidin-5-yl]ethynyl]-3-ethoxy-5-fluoro-phenyl]morpholine]

- IC50 [3]: 97 nM
Compound: Nc1ncnc2c1c(C#Cc1cccc3c1S(=O)(=O)CCC3)cn2[C@@H]1C[C@H](CNS(N)(=O)=O)[C@@H](O)[C@H]1O [Reference Example 123, 4-Amino-7-[(1R,2S,3R,4R)-2,3-dihydroxy-4-[(sulfamoylamino)methyl]cyclopentyl]-5-[2-(1,1-dioxo-3,4-dihydro-2H-thiochromen-8-yl)ethynyl]pyrrolo[2,3-d]pyrimidine]

- IC50 [3]: 5.1 nM
Compound: CCCOc1cccc(F)c1C#Cc1cn([C@@H]2O[C@H](CNS(N)(=O)=O)[C@@H](O)[C@H]2O)c2ncnc(N)c12 [Reference Example 60, 4-Amino-7-[(2R,3R,4S,5R)-3,4-dihydroxy-5-[(sulfamoylamino)methyl]tetrahydrofuran-2-yl]-5-[2-(2-fluoro-6-propoxy-phenyl)ethynyl]pyrrolo[2,3-d]pyrimidine]

- IC50 [3]: 14 nM
Compound: Nc1ncnc2c1c(C#Cc1c(F)cc(N3CCCC(O)C3)cc1F)cn2[C@@H]1O[C@H](CNS(N)(=O)=O)[C@@H](O)[C@H]1O (stereo partly drawn) [Reference Example 38, 4-Amino-5-[2-[2,6-difluoro-4-(3-hydroxy-1-piperidyl)phenyl]ethynyl]-7-[(2R,3R,4S,5R)-3,4-dihydroxy-5-[(sulfamoylamino)methyl]tetrahydrofuran-2-yl]pyrrolo[2,3-d]pyrimidine]

- IC50 [3]: 71 nM
Compound: Nc1ncnc2c1c(C#Cc1c(F)cccc1Cl)cn2[C@@H]1O[C@H](CNS(N)(=O)=O)[C@@H](O)[C@H]1O [Reference Example 73, 4-Amino-5-[2-(2-chloro-6-fluoro-phenyl)ethynyl]-7-[(2R,3R,4S,5R)-3,4-dihydroxy-5-[(sulfamoylamino)methyl]tetrahydrofuran-2-yl]pyrrolo[2,3-d]pyrimidine]

- IC50 [3]: 7.3 nM
Compound: CSc1cccc(F)c1C#Cc1cn([C@@H]2C[C@H](CNS(N)(=O)=O)[C@@H](O)[C@H]2O)c2ncnc(N)c12 [Reference Example 98, 4-Amino-7-[(1R,2S,3R,4R)-2,3-dihydroxy-4-[(sulfamoylamino)methyl]cyclopentyl]-5-[2-(2-fluoro-6-methylsulfanyl-phenyl)ethynyl]pyrrolo[2,3-d]pyrimidine]

- IC50 [3]: 56 nM
Compound: Nc1ncnc2c1c(C#Cc1cccc3c1S(=O)(=O)CCC3)cn2[C@@H]1O[C@H](CNS(N)(=O)=O)[C@@H](O)[C@H]1O [Reference Example 83, 4-Amino-7-[(2R,3R,4S,5R)-3,4-dihydroxy-5-[(sulfamoylamino)methyl]tetrahydrofuran-2-yl]-5-[2-(1,1-dioxo-3,4-dihydro-2H-thiochromen-8-yl)ethynyl]pyrrolo[2,3-d]pyrimidine]

- IC50 [3]: 45 nM
Compound: COc1cncc(F)c1C#Cc1cn([C@@H]2O[C@H](CNS(N)(=O)=O)[C@@H](O)[C@H]2O)c2ncnc(N)c12 [Reference Example 71, 4-Amino-7-[(2R,3R,4S,5R)-3,4-dihydroxy-5-[(sulfamoylamino)methyl]tetrahydrofuran-2-yl]-5-[2-(3-fluoro-5-methoxy-4-pyridyl)ethynyl]pyrrolo[2,3-d]pyrimidine]

- IC50 [3]: 5.5 nM
Compound: Nc1ncnc2c1c(C#Cc1c(F)cccc1OCC1CC1)cn2[C@@H]1O[C@H](CNS(N)(=O)=O)[C@@H](O)[C@H]1O [Reference Example 86, 4-Amino-5-[2-[2-(cyclopropylmethoxy)-6-fluoro-phenyl]ethynyl]-7-[(2R,3R,4S,5R)-3,4-dihydroxy-5-[(sulfamoylamino)methyl]tetrahydrofuran-2-yl]pyrrolo[2,3-d]pyrimidine]

The next lines start with the compound.

Compound: Nc1ccn([C@@H]2O[C@H](CO)[C@@H](O)[C@@H]2O)c(=O)n1 [Cytarabine, cytarabine]
- CI [1]: 0.52 and 0.66
- IC50 Ratio [1]: 48
- Comprehensive Evaluation ([1]; HCT116, combined use with Reference Example Compound 55): Synergism (0.3-0.7)

Compound: CO[C@H]1C[C@@H]2CC[C@@H](C)[C@@](O)(O2)C(=O)C(=O)N2CCCC[C@H]2C(=O)O[C@H]([C@H](C)C[C@@H]2CC[C@@H](OCCO)[C@H](OC)C2)CC(=O)[C@H](C)/C=C(\C)[C@@H](O)[C@@H](OC)C(=O)[C@H](C)C[C@H](C)/C=C/C=C/C=C/1C [Everolimus, everolimus]
- IC50 Ratio ([2]; VMRC-RCW, IC50 of Reference Example Compound 55 : IC50 of other compound = 1:value): 6
- Comprehensive Evaluation ([2]; VMRC-RCW): Synergism (0.3-0.7)

Compound: Sc1ncnc2nc[nH]c12 [6-Mercaptopurine, 6-mercaptopurine]
- IC50 Ratio ([1]; MM.1S, IC50 of Reference Example Compound 55 : IC50 of other compound = 1:value): 169
- CI ([1]; MM.1S, Reference Example Compound 55:other compound 1:100, at ED50): 0.61
- CI ([1]; MM.1S, Reference Example Compound 55:other compound 1:300, at ED50): 0.80
- Comprehensive Evaluation ([1]; MM.1S, combined use with Reference Example Compound 55): Moderate

Compound: CC[C@@H]1C(=O)N(C)c2cnc(Nc3ccc(C(=O)N[C@H]4CC[C@H](N5CCN(CC6CC6)CC5)CC4)cc3OC)nc2N1C(C)C [Volasertib, volasertib]
- IC50 Ratio ([2]; HL-60, IC50 of Reference Example Compound 55 : IC50 of other compound = 1:value): 14
- CI ([2]; HL-60, Reference Example Compound 55:other compound 1:11, at ED50): 0.95
- CI ([2]; HL-60, Reference Example Compound 55:other compound 1:33, at ED50): 0.82
- Comprehensive Evaluation ([2]; HL-60): Additive (0.9-1.10)

Compound: CC[C@H](Nc1ncnc2[nH]cnc12)c1nc2cccc(F)c2c(=O)n1-c1ccccc1 [Idelalisib, idelalisib]
- IC50 Ratio [2, 4]: 23
- CI ([2]; TMD-8, Reference Example Compound 55:other compound 1:11, at ED50): 0.57
- CI ([2]; TMD-8, Reference Example Compound 55:other compound 1:33, at ED50): 0.64
- Comprehensive Evaluation ([2]; TMD-8): Synergism (0.3-0.7)

Compound: AZD5363
- CI [2]: 0.33 and 0.38
- IC50 Ratio [2]: 67

Compound: O=c1[nH]cc(F)c(=O)[nH]1 [Fluorouracil, fluorouracil]
- IC50 Ratio [1, 5]: 0.8
- CI ([1]; A431, Reference Example Compound 55:other compound 1:0.56, at ED50): 0.44
- CI ([1]; A431, Reference Example Compound 55:other compound 1:1.67, at ED50): 0.20
- Comprehensive Evaluation [1, 6]: Synergism (0.3-0.7)

Compound: CO[C@H]1C[C@@H]2CC[C@@H](C)[C@@](O)(O2)C(=O)C(=O)N2CCCC[C@H]2C(=O)O[C@H]([C@H](C)C[C@@H]2CC[C@@H](O)[C@H](OC)C2)CC(=O)[C@H](C)/C=C(\C)[C@@H](O)[C@@H](OC)C(=O)[C@H](C)C[C@H](C)/C=C/C=C/C=C/1C [Rapamycin, rapamycin]
- IC50 Ratio [2, 7]: 0.1
- Comprehensive Evaluation ([2]; A549): Synergism (0.3-0.7)

Compound: O=c1[nH]c(=O)n([C@H]2C[C@H](O)[C@@H](CO)O2)cc1C(F)(F)F [Trifluridine, trifluridine]
- IC50 Ratio [1, 5]: 0.5
- CI ([1]; A431, Reference Example Compound 55:other compound 1:0.33, at ED50): 1.06
- CI ([1]; A431, Reference Example Compound 55:other compound 1:1, at ED50): 0.74
- Comprehensive Evaluation [1, 6]: Additive (0.9-1.10)

Compound: C[C@H](Nc1ncnc2nc[nH]c12)c1cc2cccc(Cl)c2c(=O)n1-c1ccccc1 [Duvelisib, duvelisib]
- IC50 Ratio [2, 4]: 2
- CI ([2]; TMD-8, Reference Example Compound 55:other compound 1:1.2, at ED50): 0.42
- CI ([2]; TMD-8, Reference Example Compound 55:other compound 1:3.7, at ED50): 0.43
- Comprehensive Evaluation ([2]; TMD-8): Synergism (0.3-0.7)

Compound: NC1(c2ccc(-c3nc4ccn5c(=O)[nH]nc5c4cc3-c3ccccc3)cc2)CCC1 [MK2206]
- IC50 Ratio [2, 7]: 5
- CI ([2]; A549, Reference Example Compound 55:other compound 1:3, at ED50): 0.31
- CI ([2]; A549, Reference Example Compound 55:other compound 1:9, at ED50): 0.35
- Comprehensive Evaluation ([2]; A549): Synergism (0.3-0.7)

Compound: Nc1nc2[nH]cc(CCc3ccc(C(=O)N[C@@H](CCC(=O)O)C(=O)O)cc3)c2c(=O)[nH]1 [Pemetrexed, pemetrexed]
- CI [1]: 0.73 and 0.55
- Comprehensive Evaluation [1]: Moderate
- IC50 Ratio [1]: 34
